Measured values taken from patent US20220378801A1, “NOVEL COMPOUNDS” (AC Immune SA, priority 2019, published 2022).

Tests used:
Format in all cases: cell-based
[1] = target: T1, NLRP3 inflammasome (Homo sapiens, UniProt Q96P20); experiment: NLRP3 inflammasome activation assay, IL-1 beta release, HMDM cells, Nigericin stimulation; conditions: LPS-primed primary human monocyte-derived macrophages; Nigericin 2.5 μM 3 h; IL-1β by AlphaLISA
Protocol: (§1) The following assays can be used to determine the inhibitory activity of test compounds on the NLRP3 inflammasome using common stimuli nigericin (Invivogen) or monosodium urate crystals (MSU)(Invivogen).
(§2) Human monocyte-like cells are cultured in RPM11640 Glutamax medium supplemented with 10% heat inactivated FCS and 50 U/ml penicillin-streptomycin (Life Technologies). HMDM (Human Monocyte Derived Macrophage) are isolated from human blood with leucosep tubes and classical monocyte isolation kit from Miltenyi based on negative selection.
(§3) Primary human monocyte-derived macrophages (HMDM) are seeded at 30000 per well in a 96 well plate and differentiated into macrophages with 10 ng/ml Human M-CSF (Macrophage Colony Stimulating Factor). At DIV 8 (Day in vitro) medium containing 10 ng/ml LPS is added. After 3 h of LPS priming, concentrations of test compound in the range from […] are added 30 min prior to NLRP3 inflammasome stimulation with Nigericin 2.5 μM or MSU 150 μg/ml for 3 h.
(§4) For IL-1β quantification, supernatants are analyzed using AlphaLISA kits according to the manufacturer's instructions (Perkin Elmer AlphaLISA AL220F).
(§5) IC50 (concentration corresponding to 50% inhibition) were determined using GraphPad Prism 8.

[2] = target: T1, NLRP3 inflammasome; experiment: NLRP3 inflammasome activation assay, IL-1 beta release, human monocyte-like cells, MSU stimulation; design: endogenous in cells; conditions: PMA-differentiated, LPS-primed human monocyte-like cells; MSU 150 μg/ml 3 h; IL-1β by AlphaLISA
Protocol: as §1, §2
(§6) NLRP3 inflammasome activation assays Human monocyte-like cells are seeded at 75000 per well in a 96 well plate and differentiated overnight into macrophages with 10 ng/ml PMA (Phorbol Myristate Acetate). The following day, medium containing 10 ng/ml LPS (lipopolysaccharide) is added. After 3 h of LPS priming, concentrations of test compound in the range from 100 μM to 6 nM are added 30 min prior to NLRP3 inflammasome stimulation with Nigericin 3.75 μM or MSU 150 μg/ml for 3 h.
as §4, §5

[3] = target: T1, NLRP3 inflammasome; experiment: NLRP3 inflammasome activation assay, IL-1 beta release, human monocyte-like cells, Nigericin stimulation; design: endogenous in cells; conditions: PMA-differentiated, LPS-primed human monocyte-like cells; Nigericin 3.75 μM 3 h; IL-1β by AlphaLISA
Protocol: as §1, §2, §6, §4, §5

[4] = target: T1, NLRP3 inflammasome; experiment: NLRP3 inflammasome activation assay, IL-1 beta release, HMDM cells, MSU stimulation; conditions: LPS-primed primary human monocyte-derived macrophages; MSU 150 μg/ml 3 h; IL-1β by AlphaLISA
Protocol: as §1, §2, §3, §4, §5

T1 sequence (Q96P20 whole entry): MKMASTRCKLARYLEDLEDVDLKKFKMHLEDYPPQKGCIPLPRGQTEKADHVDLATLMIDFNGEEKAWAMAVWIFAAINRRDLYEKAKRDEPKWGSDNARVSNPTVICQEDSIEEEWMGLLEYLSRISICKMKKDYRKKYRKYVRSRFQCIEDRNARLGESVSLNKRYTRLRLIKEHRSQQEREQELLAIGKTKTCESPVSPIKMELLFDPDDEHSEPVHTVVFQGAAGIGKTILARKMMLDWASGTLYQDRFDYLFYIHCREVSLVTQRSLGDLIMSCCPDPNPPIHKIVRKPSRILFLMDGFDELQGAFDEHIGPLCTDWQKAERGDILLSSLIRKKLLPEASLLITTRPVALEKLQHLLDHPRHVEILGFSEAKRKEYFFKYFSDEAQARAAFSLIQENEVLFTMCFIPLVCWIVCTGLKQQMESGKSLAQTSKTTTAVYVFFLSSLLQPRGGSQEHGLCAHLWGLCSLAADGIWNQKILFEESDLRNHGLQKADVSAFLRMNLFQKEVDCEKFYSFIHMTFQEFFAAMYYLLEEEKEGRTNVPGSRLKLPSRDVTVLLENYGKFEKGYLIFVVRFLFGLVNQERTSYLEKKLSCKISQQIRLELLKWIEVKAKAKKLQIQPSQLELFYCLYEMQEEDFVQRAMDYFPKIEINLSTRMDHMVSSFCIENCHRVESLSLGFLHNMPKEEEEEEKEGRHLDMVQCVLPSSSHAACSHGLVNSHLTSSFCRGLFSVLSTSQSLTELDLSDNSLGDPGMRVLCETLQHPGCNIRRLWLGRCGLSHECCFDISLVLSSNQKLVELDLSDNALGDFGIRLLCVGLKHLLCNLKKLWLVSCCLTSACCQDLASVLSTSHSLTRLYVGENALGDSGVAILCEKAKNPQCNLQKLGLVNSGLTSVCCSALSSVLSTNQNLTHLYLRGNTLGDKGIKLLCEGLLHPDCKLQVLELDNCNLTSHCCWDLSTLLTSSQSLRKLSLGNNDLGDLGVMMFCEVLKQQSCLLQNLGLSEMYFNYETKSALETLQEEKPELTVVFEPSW

Row | IC50 [1] | IC50 [2] | IC50 [3] | IC50 [4] | SMILES
1 | 1000 to 10000 nM | < 1000 nM | 1000 to 10000 nM | < 1000 nM | O=C(Nc1c2c(cc3c1CCC3)CCC2)NS1(=O)=NC(=O)c2ccccc2C1 (stereo not shown) [Example 3]
2 | 1000 to 10000 nM | < 1000 nM | < 1000 nM | 1000 to 10000 nM | COc1cc(-c2cccc(C(C)C)c2NC(=O)NS2(=O)=NC(=O)c3ccc(C(C)(C)O)cc32)ccn1 (stereo not shown) [Example 31]
3 | < 1000 nM | < 1000 nM | < 1000 nM | < 1000 nM | CC(C)(O)c1ccc2c(c1)S(=O)(=NC(=O)Nc1c3c(cc4c1CCC4)CCC3)NC2=O (stereo not shown) [Example 30, 1-(1,2,3,5,6,7-hexahydro-s-indacen-4-yl)-3-(6-(2-hydroxypropan-2-yl)-1-oxido-3-oxo-3H-1,4-benzo[d]isothiazol-1-yl)urea]
4 | 1000 to 10000 nM | < 1000 nM | < 1000 nM | < 1000 nM | O=C(N=S1(=O)NC(=O)c2ccc(Br)cc21)Nc1c2c(cc3c1CCC3)CCC2 (single isomer, unassigned) [Example 60]
5 | < 1000 nM | < 1000 nM | < 1000 nM | < 1000 nM | O=C(Nc1c2c(cc3c1CCC3)CCC2)NS1(=O)=NC(=O)c2sccc21 (single isomer, unassigned) [Example 36]
6 | 1000 to 10000 nM | < 1000 nM | < 1000 nM | < 1000 nM | O=C(Nc1c2c(cc3c1CCC3)CCC2)NS1(=O)=NC(=O)c2cc(F)ccc21 (single isomer, unassigned) [Example 62]
7 | 1000 to 10000 nM | < 1000 nM | < 1000 nM | < 1000 nM | O=C(Nc1c2c(c(F)c3c1CCC3)CCC2)NS1(=O)=NC(=O)c2ccccc21 (single isomer, unassigned) [Example 37]
8 | < 1000 nM | < 1000 nM | < 1000 nM | < 1000 nM | O=C(Nc1c2c(c(F)c3c1CCC3)CCC2)NS1(=O)=NC(=O)c2sccc21 (stereo not shown) [Example 19]
9 | 1000 to 10000 nM | < 1000 nM | < 1000 nM | < 1000 nM | O=C(Nc1c2c(cc3c1CCC3)CCC2)NS1(=O)=NC(=O)c2ccccc2C1 (single isomer, unassigned) [Example 34]
10 | < 1000 nM | < 1000 nM | < 1000 nM | < 1000 nM | CC(C)(O)c1ccc2c(c1)S(=O)(=NC(=O)Nc1c3c(cc4c1CCC4)CCC3)NC2=O (single isomer, unassigned) [Example 41]
11 | 1000 to 10000 nM | < 1000 nM | 1000 to 10000 nM | < 1000 nM | O=C(Nc1c2c(cc3c1CCC3)CCC2)NS1(=O)=NC(=O)c2c(Cl)cccc21 (single isomer, unassigned) [Example 42]
12 | < 1000 nM | < 1000 nM | < 1000 nM | < 1000 nM | COc1ccc2c(c1)S(=O)(NC(=O)Nc1c3c(cc4c1CCC4)CCC3)=NC2=O (single isomer, unassigned) [Example 48]
13 | 1000 to 10000 nM | < 1000 nM | 1000 to 10000 nM | < 1000 nM | O=C(N=S1(=O)NC(=O)c2ccccc21)Nc1c2c(cc3c1CCC3)CCC2 (racemic) [Example 1]
